Measured values: article PMC9653606, “Synergistic Effect of DIBOA and Verbascoside from Acanthus mollis Leaf on Tyrosinase Inhibition” (International Journal of Molecular Sciences, 2022)

Molecular target: mushroom tyrosinase
Test: L-DOPA oxidation (dopachrome, […] nm) inhibition assay with Lineweaver-Burk kinetics
Assay type: biochemical

Structure (SMILES) | IC50 [µM]
C[C@@H]1O[C@@H](O[C@@H]2[C@@H](O)[C@H](OCCc3ccc(O)c(O)c3)O[C@H](CO)[C@H]2OC(=O)/C=C/c2ccc(O)c(O)c2)[C@H](O)[C@H](O)[C@H]1O [compound 8, 2-(3,4-dihydroxyphenyl)ethyl-1-O-α-L-rhamnopyranosyl-(1→3)-(4-O-Ε-caffeoyl)-β-D-glucopyranoside] | 22.7 ± 2.83
O=C1C(O)Oc2ccccc2N1O (centres unmarked) [compound 1, 2,4-dihydroxy-1,4-benzoxazin-3-one] | 27.2 ± 3
